Measured values taken from patent US20170184612A1, “USE OF LEUKOCYTES AND NOVEL BIOMARKERS IN THE DIAGNOSIS, CONFIRMATION, AND TREATMENT OF A NEUROLOGICAL DISORDER” (The Trustees of Columbia University in the City of New York, priority 2014, published 2017).

Tests used:
[1] = tested on: peripheral blood mononuclear cells (PBMC), T cells; experiment: ELISpot assay, IL-5 release (SFC) after stimulation with a-synuclein epitope pools; format: cell-based, human; conditions: for IL-g Peptide + (donors positive to the peptide): of donors tested (peptide); for IL-g Peptide +: number of donors positive to the single peptide
Procedure: (§1) Blood from age matched controls and PD patients were obtained and mononuclear cells were isolated by gradient centrifugation.
(§2) Release of the cytokines gamma-interferon, which measures activation of CD4+ and/or CD8+ T cells, and the interleukin, IL-5, which measures activation of CD4+ T cells was measured by ELISpot assay. […] After 22 hours of stimulation at 37 C, the cells were removed and release of cytokines was measured by colorimetric detection of spot-forming cells (SFC). Confirmed release of cytokine is determined by the presence of a minimum of 20 SFC per million cells.
(§3) The binding algorithms in SubAim 1 predict how well the peptides would bind to MHC if present, but not if they are present in patients. To determine this, the presence of T cell response against the candidate antigens by patient blood-derived peripheral blood mononuclear cells (PBMC) is assessed by ELISPOT assays upon stimulation with the peptides. This assay detects and quantifies cytokine release (in this case, IFNγ and IL-5) from specific activated T cells.
(§4) Data were obtained from blood samples (25 ml) from 44 PD patients and 24 age-matched controls. The experiments were conducted blindly. PBMCs from these samples were isolated and exposed to pools comprising the 122 candidate class I and class II antigens and phosphorylated S129 epitopes generated in Subaim 1. For the PBMCs responsive to the pooled peptides, the response was then deconvoluted to identify individual epitopes.
(§5) PMBC fractions are recovered by standard methods with Ficoll gradient and T cells expansion (Oseroff et al., 2010). The methods for the analysis of T cell reactions and measurement of cytokines production using the enzyme-linked immunosorbent spot (ELISPOT) assay are published in analogous experiments to discover antigens in multiple sclerosis (Lolli et al., 2013) and in hay fever allergens (Oseroff et al., 2010). T cell responses are determined by measuring IFNγ and IL-5 release by ELISPOT. Statistical analysis of differences between populations is expected to be non-parametric and analyzed with the U-Mann-Whitney test. If there were a normal distribution of response, which is a priori unlikely as some patients have no T cell response, with an SD=1, 8 patients per group would be required to provide a p>90% that the study detect a >2 fold difference at a two-sided 0.05 significance level.

[2] = tested on: peripheral blood mononuclear cells (PBMC), T cells; experiment: ELISpot assay, gamma-interferon release (SFC) after stimulation with a-synuclein epitope pools; format: cell-based, human; conditions: for Pool +: IFNg, Pool Stimulated, number of donors with a positive response, Donors tested 1; for IFNg Peptide + (donors positive to the peptide): of donors tested (peptide); for IFNg Peptide +: number of donors positive to the single peptide
Procedure: as §1, §2, §3, §4, §5

[3] = Patients Summary, PD patients, single peptide
[4] = second 'Pool Stimulated' section (from r296), 12 donors tested
[5] = peptide + / donors tested (peptide), second 'Pool Stimulated' section (from r296), 12 donors tested
[6] = single peptide, second 'Pool Stimulated' section (from r296), 12 donors tested

| Substance | IL-g Peptide + (donors positive to the peptide) ([1]; Patients Summary, PD patients) | IL-g Response Frequency [1, 3] [%] | IL-g Total SFC [1, 3] [SFC] | IL-g Peptide + [1, 4] | IL-g Response Frequency [1, 5] [%] | IL-g Total SFC [1, 6] [SFC] | Pool + [2] | IFNg Peptide + (donors positive to the peptide) ([2]; Patients Summary, PD patients) | IFNg Response Frequency [2, 3] [%] | IFNg Total SFC [2, 3] [SFC] | IFNg Peptide + [2, 4] | IFNg Response Frequency [2, 5] [%] | IFNg Total SFC [2, 6] [SFC] | IL-g Avg SFC [1, 3] [SFC] | IFNg Avg SFC [2, 3] [SFC] |
| --- | --- | --- | --- | --- | --- | --- | --- | --- | --- | --- | --- | --- | --- | --- | --- |
| 3521.0007 (AAATGFVKK; listed as Homo sapiens) | 0 | 0 | 0 | 0 | 0 | 0 | 0 | 0 | 0 | 0 | 0 | 0 | 0 | – | – |
| 3521.0008 (IAAATGFVK; listed as Homo sapiens) | 1 | 25 | 177 | 0 | 0 | 0 | 0 | 0 | 0 | 0 | 0 | 0 | 0 | 177 | – |
| 3521.0009 (LYVGSKTKK; listed as Homo sapiens) | 1 | 17 | 559 | – | – | – | 0 | 2 | 33 | 326 | – | – | – | 559 | 163 |
| 3521.0011 (QVTNVGGAV; listed as Homo sapiens) | 0 | 0 | 0 | 0 | 0 | 0 | 0 | 0 | 0 | 0 | 0 | 0 | 0 | – | – |
| 3521.0013 (VTNVGGAVV; listed as Homo sapiens) | 0 | 0 | 0 | 0 | 0 | 0 | 0 | 1 | 50 | 209 | 0 | 0 | 0 | – | 209 |
| 3521.0014 (KTVEGAGSI; listed as Homo sapiens) | 0 | 0 | 0 | 0 | 0 | 0 | 0 | 0 | 0 | 0 | 0 | 0 | 0 | – | – |
| 3521.0015 (KTKEQVTNV; listed as Homo sapiens) | 0 | 0 | 0 | 0 | 0 | 0 | 0 | 0 | 0 | 0 | 0 | 0 | 0 | – | – |
| 3521.0018 (MPVDPDNEA; listed as Homo sapiens) | 0 | 0 | 0 | 0 | 0 | 0 | 0 | 0 | 0 | 0 | 0 | 0 | – | – | – |
| 3521.0019 (APGKTKEGV; listed as Homo sapiens) | 0 | 0 | 0 | 0 | 0 | 0 | 0 | 0 | 0 | 0 | 0 | 0 | 0 | – | – |
| 3521.0021 (PGKTKEGVL; listed as Homo sapiens) | 0 | 0 | 0 | 0 | 0 | 0 | 0 | 1 | 13 | 36 | 0 | 0 | 0 | – | 36 |
| 3521.0022 (GSIAAATGF; listed as Homo sapiens) | 0 | 0 | 0 | 0 | 0 | 0 | 0 | 0 | 0 | 0 | 0 | 0 | 0 | – | – |
